Measured values reported in publication PMC11696576, “Next generation thiazolyl ketone inhibitors of cytosolic phospholipase A2 α for targeted cancer therapy” (Nature Communications, 2025).
Where “and” joins values, the source holds several entries; their conditions need not be identical. Equal values may be shown once.

Columns and labels:
[1] = biological target: T1, human calcium-independent GVIA iPLA2 (Homo sapiens, UniProt O60733); design: method as in PMID 25152071; conditions: 0.091 mole fraction; previously published data ref 19; cited from earlier work
T1 sequence (O60733 1-806): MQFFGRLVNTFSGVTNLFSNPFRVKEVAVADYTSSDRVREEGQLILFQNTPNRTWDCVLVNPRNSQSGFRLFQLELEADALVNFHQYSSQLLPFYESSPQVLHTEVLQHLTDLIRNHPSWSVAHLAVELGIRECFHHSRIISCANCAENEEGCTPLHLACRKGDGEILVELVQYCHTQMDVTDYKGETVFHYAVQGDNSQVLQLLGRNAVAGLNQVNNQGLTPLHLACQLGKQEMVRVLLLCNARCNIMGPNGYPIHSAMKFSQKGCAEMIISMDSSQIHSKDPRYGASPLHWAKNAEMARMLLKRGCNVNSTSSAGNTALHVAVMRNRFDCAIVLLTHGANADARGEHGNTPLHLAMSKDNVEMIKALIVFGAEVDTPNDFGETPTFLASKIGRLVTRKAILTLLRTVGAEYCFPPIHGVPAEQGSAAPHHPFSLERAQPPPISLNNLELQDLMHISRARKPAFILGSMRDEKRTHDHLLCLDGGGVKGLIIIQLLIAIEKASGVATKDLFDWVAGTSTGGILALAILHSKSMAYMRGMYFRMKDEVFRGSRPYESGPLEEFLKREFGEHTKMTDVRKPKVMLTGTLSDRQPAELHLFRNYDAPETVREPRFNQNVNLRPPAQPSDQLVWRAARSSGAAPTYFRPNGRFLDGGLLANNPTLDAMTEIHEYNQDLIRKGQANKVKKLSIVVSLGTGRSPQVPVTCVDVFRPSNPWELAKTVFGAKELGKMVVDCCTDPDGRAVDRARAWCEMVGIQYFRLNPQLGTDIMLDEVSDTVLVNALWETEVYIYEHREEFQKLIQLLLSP

secreted GV sPLA2 = biological target: T2, secreted GV sPLA2 (Homo sapiens, UniProt P39877); design: method as in PMID 25152071; conditions: 0.091 mole fraction; previously published data ref 19; cited from earlier work
T2 sequence (P39877 21-138): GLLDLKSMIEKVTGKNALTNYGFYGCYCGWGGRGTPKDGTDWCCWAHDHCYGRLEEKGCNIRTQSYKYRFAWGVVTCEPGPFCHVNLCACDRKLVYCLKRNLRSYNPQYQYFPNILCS

MV-4-11 cells = test: cell viability, resazurin assay, MV-4-11; format: cell-based, human; conditions: for cell viability relative to 0 µM = 100 (Figure S7b): MV-4-11, rep1-4, listed as AVX420
Excerpt: Bjørn Tore Gjertsen (University of Bergen, Norway). […] The cell lines were not authenticated.
Figure S7. Sensitivity of cell lines derived from hematological malignancies. a. cell viability expressed as relative light units ( RLU) is plotted for all cell lines in the screen that were de-rived from hematological malignancies. b. corresponding IC50 values calculated by non-linear regression analysis. c. Cell viability assessed by resazurin assays in MV-4-11 and HL-60 cells.
Data were normalized to the vehicle-treated control (100%) and are the mean of 4 biological replicates ±stdev (MV-4-11) and 5 biological replicates ±stdev (HL-60), Non-linear regres- […]

CD3+ T-cells = test: viability of healthy T-cells, propidium iodide exclusion; format: cell-based
Description: (§1) Data are the mean ± stdev of 3 biological replicates. […] Data are the mean ± stdev of 3 biological replicates.
Propidium iodide exclusion was used to assess cell death by flow cytometry. After treatment, the cells were washed once with PBS and stained with 1.4 μg/mL propidium iodide (PI) for 5 min before quantification of PI negative and positive cells using a CytoFLEX flow cytometer (California, United States). An example of the gating strategy to assess PI staining can be found in Fig. S8c. […]
The propidium iodide exclusion assay was used to assess vi-ability of ungated PBMCs treated with AVX420 at the indicated doses for 24 hours .
Data are the mean ±stdev from 8 biological replicates (1-16 µM) and 5 biological rep- […]
iodide exclusion in CD3+ lymphocytes (T-cells). Cells appearing in the bottom right quadrant are PI-negative (live) T-cells while cells in the top right quadrant are PI-posi- […]
(1 picture or pasted object on this page, not shown here)

Jurkat E6.1 cells = test: intracellular ROS, ROS-red staining and flow cytometry, Jurkat E6.1; format: cell-based, human; design: ROS Negative Cells / ROS Negative Cells (Figure S9 a) / ROS Negative Cells (Figure S9c): unit not given here; conditions: for ROS Negative Cells (Figure S9 a) / ROS Positive Cells (Figure S9 a): replicates; for ROS Negative Cells (Figure S9 a) / ROS Positive Cells (Figure S9 a) / ROS Negative Cells / ROS Positive Cells: listed as AVX420; for ROS Negative Cells (Figure S9c) / ROS Positive Cells (Figure S9c): rep1, rep2
Description: as §1
Rather, when combined with AVX420, exogenous AA augmented cell death (Fig. 6e). […] The response occurred within 1 h, peaked at 8–12 h, and preceded the loss of cell viability (Fig. S9a, b).
After treatment, cells were stained with cellular ROS Assay Kit (Cat. No. ab186029; Abcam, Cambridge, United Kingdom) following the manufacturer’s instructions, and ROS-positive cells were quantified by flow cytometry using either the NovoCyte flow cytometer, and Novoexpress Software v1.5.0 from Agilent Technologies (Santa Clara, USA) or the CytoFLEX flow cytometer and CytExpert analysis software v 2.5 from Beckman Coulter (California, United States). An example showing the gating strategy used to assess ROS-Red staining is found in Fig. S9d.

[2] = Figure 6c, 32 µM, listed as AVX420

CCCCCCCCc1ccc(OCC(=O)c2nc(C(=O)OC)cs2)cc1 [GK470]
GVIA iPLA2 % Inhib [1]: 86% | GV sPLA2 % Inhib (secreted GV sPLA2): 41%

CCCCCCCOc1ccc(OCC(=O)c2nc(C(=O)OC)cs2)cc1 [GK420]
IC50 (MV-4-11 cells; Homo sapiens, MV4-11, resazurin assay): 5.7 µM | cell viability relative to 0 µM = 100 (Figure S7b) (MV-4-11 cells; 0.00306 µM): 107.974 and 94.1556 and 88.3103 and 111.814 | cell viability relative to 0 µM = 100 (Figure S7b) (MV-4-11 cells; 0.00919 µM): 108.045 and 93.3168 and 91.3448 and 113.05 | cell viability relative to 0 µM = 100 (Figure S7b) (MV-4-11 cells; 0.02757 µM): 114.954 and 104.137 and 83.3442 and 127.148 | cell viability relative to 0 µM = 100 (Figure S7b) (MV-4-11 cells; 0.08272 µM): 119.708 and 98.9766 and 68.867 and 129.045 | cell viability relative to 0 µM = 100 (Figure S7b) (MV-4-11 cells; 0.24815 µM): 113.432 and 105.146 and 76.1961 and 124.847 | cell viability relative to 0 µM = 100 (Figure S7b) (MV-4-11 cells; 0.74444 µM): 108.976 and 63.5816 and 66.7499 and 99.3411 | cell viability relative to 0 µM = 100 (Figure S7b) (MV-4-11 cells; 2.23333 µM): 103.119 and 55.0214 and 81.5625 and 89.0387 | cell viability relative to 0 µM = 100 (Figure S7b) (MV-4-11 cells; 6.7 µM): 80.6879 and 58.6991 and 52.7781 and 45.3319 | cell viability relative to 0 µM = 100 (Figure S7b) (MV-4-11 cells; 10 µM): 48.2149 and 41.1505 and 41.4878 and 26.408 | cell viability relative to 0 µM = 100 (Figure S7b) (MV-4-11 cells; 30 µM): 40.7033 and 23.5083 and 29.7689 and 20.683 | PI Negative (CD3+ T-cells; Figure 6c, 2 µM, listed as AVX420): 96 and 98 and 95 and 91 and 89 and 97 | PI Negative (CD3+ T-cells; Figure 6c, 8 µM, listed as AVX420): 96 and 98 and 94 and 90 and 87 and 95 and 93 | PI Negative (CD3+ T-cells; Figure 6c, 16 µM, listed as AVX420): 96 and 98 and 94 and 90 and 84 and 91 | PI Negative (CD3+ T-cells; [2]): 92 and 94 and 89 and 91 and 90 | PI Positive (CD3+ T-cells; [2]): 6 and 11 and 9 and 10 and 8 | effect on healthy CD3+ T-cells (CD3+ T-cells; up to a maximum dose tested of 32 µM): no effect | ROS Negative Cells (Figure S9 a) (Jurkat E6.1 cells; 1h): 68 and 69 and 77 and 81 | ROS Positive Cells (Figure S9 a) (Jurkat E6.1 cells; 1h): 31 and 23 and 19 and 32 | ROS Negative Cells (Figure S9 a) (Jurkat E6.1 cells; 2h): 46 (2×) and 47 (2×) and 51 and 54 and 50 and 48 | ROS Positive Cells (Figure S9 a) (Jurkat E6.1 cells; 2h): 53 (2×) and 49 and 46 and 50 and 54 (2×) and 52 | ROS Negative Cells (Figure S9 a) (Jurkat E6.1 cells; 4h): 33 (2×) and 32 and 37 and 30 and 29 and 34 (2×) | ROS Positive Cells (Figure S9 a) (Jurkat E6.1 cells; 4h): 67 (2×) and 68 and 63 and 70 and 71 and 66 (2×) | ROS Negative Cells (Figure S9 a) (Jurkat E6.1 cells; 8h): 26 and 27 | ROS Positive Cells (Figure S9 a) (Jurkat E6.1 cells; 8h): 73 and 74 | ROS Negative Cells (Figure S9 a) (Jurkat E6.1 cells; 12h): 18 and 19 and 21 and 16 | ROS Positive Cells (Figure S9 a) (Jurkat E6.1 cells; 12h): 81 and 79 and 84 and 82 | ROS Negative Cells (Figure S9 a) (Jurkat E6.1 cells; 16h): 21 and 22 and 18 (2×) and 17 and 19 | ROS Positive Cells (Figure S9 a) (Jurkat E6.1 cells; 16h): 78 and 82 (2×) and 83 and 81 and 79 | ROS Negative Cells (Figure S9 a) (Jurkat E6.1 cells; 20h): 14 and 13 and 15 | ROS Positive Cells (Figure S9 a) (Jurkat E6.1 cells; 20h): 87 and 85 and 86 | ROS Negative Cells (Figure S9 a) (Jurkat E6.1 cells; 24h): 13 and 15 and 16 | ROS Positive Cells (Figure S9 a) (Jurkat E6.1 cells; 24h): 85 and 84 and 87 | ROS Negative Cells (Figure S9c) (Jurkat E6.1 cells; AVX420 0.5 µM + AA 20 µM): 80 and 83 | ROS Positive Cells (Figure S9c) (Jurkat E6.1 cells; AVX420 0.5 µM + AA 20 µM): 20 and 17 | ROS Negative Cells (Figure S9c) (Jurkat E6.1 cells; AVX420 0.5 µM + Lip 5 µM): 98 and 99 | ROS Positive Cells (Figure S9c) (Jurkat E6.1 cells; AVX420 0.5 µM + Lip 5 µM): 2 and 1 | ROS Negative Cells (Figure S9c) (Jurkat E6.1 cells; AVX420 0.5 µM): 80 and 76 | ROS Positive Cells (Figure S9c) (Jurkat E6.1 cells; AVX420 0.5 µM): 20 and 24 | ROS Negative Cells (Jurkat E6.1 cells; Jurkat E6.1, 0.25 µM): 78 and 75 and 60 and 66 | ROS Positive Cells (Jurkat E6.1 cells; Jurkat E6.1, 0.25 µM): 22 and 25 and 40 and 34 | ROS Negative Cells (Jurkat E6.1 cells; Jurkat E6.1, 0.5 µM): 46 and 45 and 51 | ROS Positive Cells (Jurkat E6.1 cells; Jurkat E6.1, 0.5 µM): 54 and 55 and 49 | ROS Negative Cells (Jurkat E6.1 cells; Jurkat E6.1, 1 µM): 19 and 21 and 30 and 22 | ROS Positive Cells (Jurkat E6.1 cells; Jurkat E6.1, 1 µM): 81 and 79 and 70 and 78 | ROS Positive Cells (Jurkat E6.1 cells; Jurkat E6.1, 2 µM): 95 and 93 and 89 and 92 | intracellular ROS (iROS) (Jurkat E6.1 cells; Jurkat E6.1, 4 h): dose-dependent increase
